The record followed here is US20080268076A1, “Composition for Inhibiting Acyl-Coa:Cholesterol Acyltransferase” (priority 2005, published 2008).

For the first experiment, the system named is acyl-CoA:cholesterol acyltransferase (ACAT). Nature of the experiment: Assay for ACAT activity with [1-14C]oleoyl-CoA and rat liver microsomal enzyme. The note with it: ACAT inhibition, compared with the positive control obovatol. For orientation: Liver microsomes are vesicles of endoplasmic reticulum, rich in cytochrome P450 enzymes.
Protocol: The livers were removed from Male Sprague-Dawley rats (250-300 g), washed with microsome buffer A (0.25 M sucrose, 1 mM EDTA, 0.01 M Tris-HCl, pH 7.4), finely fractioned with scissors, and homogenized using a Teflon-glass homogenizer.
A reaction solution was prepared by mixing 10.0 μl of the sample, 4.0 μl of a rat liver microsomal enzyme of rat, 20.0 μl of an assay buffer [0.5 M KH2PO4, 10 mM DTT, pH 7.4], 15.0 μl of 40 mg/me BSA (essentially fatty acid free), 2.0 μl of 20 mg/me cholesterol, and 41.0 μl of distilled water, and subjected to pre-reaction at 37° C. for 20 min. To this enzymatic solution was added 8.0 μl of [1-^14C]oleoyl-CoA (0.05 μCi, final conc. 10 μM), and enzyme reaction was carried out at 37° C. for 25 min and terminated with 1 ml of isopropanol-heptane (4:1 v/v). Following the addition of 0.6 ml of heptane and 0.4 ml of five fold-diluted assay buffer, centrifugation was performed to separate the organic solvent. 100 μl of the supernatant was mixed well with 3 ml of Lipoluma scintillation cocktail and radioactivity was measured using a liquid scintillation counter.
Activity of inhibiting ACAT was quantified as radioactivity detected in the product of the reaction between the radio-labeled substrate and the enzyme in the presence of the assay samples, and percentage activity inhibition was calculated according to Equation 1 as follows.
CPM (T): CPM detected upon co-existence of sample and enzyme
CPM (C1): CPM upon existence of enzyme alone in the absence of sample
CPM (C2): CPM detected upon existence of sample alone in the absence of enzyme
CPM (B): CPM detected in the absence of both enzyme and sample.
In the case of `CC(C)CNC(=O)/C=C/C=C/CCCC/C=C/c1ccc2c(c1)OCO2` [Chemical Formula 2, pipercide], the “inhibitory activity relative to obovatol” value was determined as 12 times.

Staying with this experiment, now noted: read-out: IC50 against ACAT; rat liver microsomal enzyme.
Take `CC(C)CNC(=O)/C=C/C=C/CC/C=C/c1ccc2c(c1)OCO2` [Chemical Formula 1, retrofractamide A]: the 50% inhibitory concentration (IC50) amounted to 24.5 µM. Still for that read-out and setting: as for `CC(C)CNC(=O)/C=C/C=C/CCCC/C=C/c1ccc2c(c1)OCO2` [Chemical Formula 2, pipercide], the figure is 3.7 µM. In the case of `O=C(/C=C/CCCCCCc1ccc2c(c1)OCO2)N1CCCCC1` [Chemical Formula 3, piperrolein B], the 50% inhibitory concentration (IC50) was 87.5 µM. Consider `CC(C)CNC(=O)/C=C/CCCCCC/C=C/c1ccc2c(c1)OCO2` [Chemical Formula 4, piperchabamide D], for which the IC50 was found to be 11.5 µM. Regarding `CCCCC/C=C/C=C/C(=O)NCC(C)C` [Chemical Formula 5, pellitorin], the IC50 amounted to 40.4 µM. In the case of obovatol [reference compound], the 50% inhibitory concentration (IC50) was found to be 44 µM.

By IC50 is commonly meant the concentration at which inhibition is half-maximal.
